Test results reported in patent US20090247516A1, “3- (BENZO [D] [1,3] DIOXOL-5-YLMETHYL) -4- (THIO) OXO-2- (THIO) OXO-AZOLIDIN-5-YLIDENE DERIVATIVES AS ANTIBACTERIAL AGENTS” (priority 2006, published 2009).
Read-outs that look alike come from different tables or passages of the source.

Key:
E. coli MurD = E. coli MurD (Escherichia coli, UniProt P14900); test: MurD enzyme assay (Method A); format: biochemical; conditions: for activity at 100 µM: read-out: E. coli MurD RA at 100 μM inhibitor conc.
Protocol: Method A: MurD Enzyme Assay
The compounds are tested for their ability to inhibit the formation of UDP-MurNAc-L-Ala-D-[^14C]Glu in mixtures (50 μl) containing 0.1 M Tris-HCl, pH 8.6, 5 mM MgCl2, 5 mM ATP, 25 μM UDP-MurNAc-L-Ala, 25 μM D-[^14C]Glu, inhibitor (100 μM), DMSO (5%, v/v), and enzyme. After 30 min at 37° C., the reaction is stopped by addition of acetic acid (10 μl). After lyophilization, D-[^14C]Glu and of UDP-MurNAc-L-Ala-D-[^14C]Glu are separated by reverse-phase HPLC and quantitated by on-line scintillation counting. The residual activity is determined with respect to an assay with 5% DMSO and without inhibitor (taken as 100%). Values presented are means of duplicates.
IC50 values are determined with several concentrations of the inhibitor using the Hill equation:
(§1) log[vi/(vo−vi)]=−n log[l]+logK′
(§2) where vo is the rate without inhibitor, vi the rate in the presence of inhibitor and n the Hill number.

S. aureus MurE = molecular target: T1, S. aureus MurE (Staphylococcus aureus, UniProt Q2FZP6); test: MurE enzyme assay (Method B); format: biochemical; conditions: for activity at 100 µM: residual activity at 100 μM inhibitor, assay with 5% DMSO and without inhibitor taken as 100%, means of duplicates, read-out: S. aureus MurE RA at 100 μM inhibitor conc.; for IC50: several inhibitor concentrations, Hill equation
T1 sequence (Q2FZP6 1-493): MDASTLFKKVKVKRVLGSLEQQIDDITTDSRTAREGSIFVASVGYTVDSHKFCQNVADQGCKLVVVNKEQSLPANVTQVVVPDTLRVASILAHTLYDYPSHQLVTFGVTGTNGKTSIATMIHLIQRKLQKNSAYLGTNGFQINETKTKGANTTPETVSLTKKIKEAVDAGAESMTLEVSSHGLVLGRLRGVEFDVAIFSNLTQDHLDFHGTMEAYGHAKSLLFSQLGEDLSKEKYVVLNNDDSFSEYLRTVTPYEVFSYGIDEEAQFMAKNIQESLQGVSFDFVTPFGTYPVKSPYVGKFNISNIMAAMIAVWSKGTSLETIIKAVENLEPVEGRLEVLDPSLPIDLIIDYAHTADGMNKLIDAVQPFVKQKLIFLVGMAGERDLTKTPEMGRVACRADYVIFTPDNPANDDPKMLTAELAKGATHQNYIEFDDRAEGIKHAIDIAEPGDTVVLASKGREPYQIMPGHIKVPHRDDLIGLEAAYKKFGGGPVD
Protocol: Method B: MurE Enzyme Assay
The compounds are tested for their ability to inhibit the formation of UDP-MurNAc-L-Ala-γ-D-Glu-L-[^14C]Lys in mixtures (50 μl) containing 0.1 M Tris-HCl, pH 8.6, 15 mM MgCl2, 5 mM ATP, 100 μM UDP-MurNAc-L-Ala-γ-D-Glu, 200 μM L-[^14C]Lys (50,000 cpm), inhibitor (100 μM), DMSO (5%, v/v), and enzyme from S. aureus. After 30 min at 37° C., the reaction is stopped by addition of acetic acid (10 μl). After lyophilization, L-[^14C]Lys and of UDP-MurNAc-L-Ala-Y-D-Glu-L-[^14C]Lys are separated by reverse-phase HPLC on Nucleosil 100C18 5U (150×4.6 mm) in 50 mM ammonium formate, pH 4.7, at 0.6 ml/min, and quantitated by on-line scintillation counting using the Quicksafe Flow 2 scintillating fluid. The residual activity is determined with respect to an assay with 5% DMSO and without inhibitor (taken as 100%). Values presented are means of duplicates.
IC50 values were determined with several concentrations of the inhibitor using the Hill equation:
as §1, §2

[1] = residual activity at 100 μM inhibitor, assay with 5% DMSO and without inhibitor taken as 100%, means of duplicates

Sequence of E. coli MurD (P14900 whole entry): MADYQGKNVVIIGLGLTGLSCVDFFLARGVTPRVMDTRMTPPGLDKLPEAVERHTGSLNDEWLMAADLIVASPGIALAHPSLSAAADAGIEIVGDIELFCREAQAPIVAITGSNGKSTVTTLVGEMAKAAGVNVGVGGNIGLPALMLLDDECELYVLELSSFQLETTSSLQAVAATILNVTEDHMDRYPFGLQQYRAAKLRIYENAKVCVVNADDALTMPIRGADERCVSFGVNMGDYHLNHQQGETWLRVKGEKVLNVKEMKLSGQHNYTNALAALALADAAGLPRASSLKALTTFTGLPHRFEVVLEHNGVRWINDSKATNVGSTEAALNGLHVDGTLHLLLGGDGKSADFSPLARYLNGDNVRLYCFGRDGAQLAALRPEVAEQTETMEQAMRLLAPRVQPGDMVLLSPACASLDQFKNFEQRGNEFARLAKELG

Compound O=C1/C(=C/c2cccc([N+](=O)[O-])c2)SC(=S)N1Cc1ccc2c(c1)OCO2 [Example 7, (Z)-3-(benzo[d][1,3]dioxol-5-yl-methyl)-5-(3-nitrobenzylidene)-2-thioxothiazolidin-4-one] has an IC50 (E. coli MurD) of over 100 µM, an activity at 100 µM (E. coli MurD; [1]) of 98% and an activity at 100 µM (S. aureus MurE) of 19%. The IC50 (S. aureus MurE) was 7 µM.

Compound O=C1/C(=C/c2c(NCCO)nc3ccccn3c2=O)SC(=S)N1Cc1ccc2c(c1)OCO2 [Example 4, (Z)-3-(benzo[d][1,3]dioxol-5-yl-methyl)-5-((2-(2-hydroxyethylamino)-4-oxo-4H-pyrido[1,2-a]pyrimidin-3-yl)methylene)-2-thioxothiazolidin-4-one] has an IC50 (E. coli MurD) of 15 µM, an activity at 100 µM (E. coli MurD; [1]) of 26% and an activity at 100 µM (S. aureus MurE) of 4%. The IC50 (S. aureus MurE) was 4 µM.

With N#Cc1nc(/C=C2/SC(=S)N(Cc3ccc4c(c3)OCO4)C2=O)oc1N1CCOCC1 [Example 9, (E)-2-((3-(benzo[d][1,3]dioxol-5-yl-methyl)-4-oxo-2-thioxothiazolidin-5-ylidene)methyl)-5-morpholinooxazole-4-carbonitrile] the IC50 (E. coli MurD) was over 100 µM, the activity at 100 µM (E. coli MurD; [1]) was 98% and the activity at 100 µM (S. aureus MurE) was 17%. The IC50 (S. aureus MurE) was 51 µM.

COc1ccc(/C=C2\SC(=S)N(Cc3ccc4c(c3)OCO4)C2=O)c(OC)c1 [Example 14, (Z)-3-(benzo[d][1,3]dioxol-5-yl-methyl)-5-(2,4-dimethoxybenzylidene)-2-thioxothiazolidin-4-one] gave an IC50 (E. coli MurD) of over 100 µM, an activity at 100 µM (E. coli MurD; [1]) of 72% and an activity at 100 µM (S. aureus MurE) of 67%. It also gave an IC50 (S. aureus MurE) of over 100 µM.

In the case of CCN(CC)c1ccc(/C=C2\SC(=S)N(Cc3ccc4c(c3)OCO4)C2=O)cc1 [Example 12, (Z)-3-(benzo[d][1,3]dioxol-5-yl-methyl)-5-(4-(diethylamino)benzylidene)-2-thioxothiazolidin-4-one], the IC50 (E. coli MurD) is reported as over 100 µM, the activity at 100 µM (E. coli MurD; [1]) is reported as 78% and the activity at 100 µM (S. aureus MurE) is reported as 59%. For the same compound, the IC50 (S. aureus MurE) was over 100 µM.

For O=C1/C(=C/c2c(NCCCO)nc3ccccn3c2=O)SC(=S)N1Cc1ccc2c(c1)OCO2 [Example 1, (Z)-3-(benzo[d][1,3]dioxol-5-yl-methyl)-5-((2-(3-hydroxypropylamino)-4-oxo-4H-pyrido[1,2-a]pyrimidin-3-yl)methylene)-2-thioxothiazolidin-4-one], the IC50 (E. coli MurD) was over 100 µM, the activity at 100 µM (E. coli MurD; [1]) was 77% and the activity at 100 µM (S. aureus MurE) was 82%. For the same compound, the IC50 (S. aureus MurE) was over 100 µM.

O=C1/C(=C/c2c(NCC3CCCO3)nc3ccccn3c2=O)SC(=S)N1Cc1ccc2c(c1)OCO2 (centres unmarked) [Example 3, (Z)-3-(benzo[d][1,3]dioxol-5-yl-methyl)-5-((4-oxo-2-((tetrahydrofuran-2-yl)methylamino)-4H-pyrido[1,2-a]pyrimidin-3-yl)methylene)-2-thioxothiazolidin-4-one] gave an IC50 (E. coli MurD) of 24 µM, an activity at 100 µM (E. coli MurD; [1]) of 7% and an activity at 100 µM (S. aureus MurE) of 4%. For the same compound, the IC50 (S. aureus MurE) was 5 µM.

In the case of O=C1/C(=C/c2ccccn2)SC(=S)N1Cc1ccc2c(c1)OCO2 [Example 6, (Z)-3-(benzo[d][1,3]dioxol-5-yl-methyl)-5-(pyridin-2-yl-methylene)-2-thioxothiazolidin-4-one], the IC50 (E. coli MurD) is reported as over 100 µM, the activity at 100 µM (E. coli MurD; [1]) is reported as 99% and the activity at 100 µM (S. aureus MurE) is reported as 5%. For the same compound, the IC50 (S. aureus MurE) was 37 µM.

Work on O=C1/C(=C/c2c(NCCOCCO)nc3ccccn3c2=O)SC(=S)N1Cc1ccc2c(c1)OCO2 [Example 5, (Z)-3-(benzo[d][1,3]dioxol-5-yl-methyl)-5-((2-(2-(2-hydroxyethoxy)ethylamino)-4-oxo-4H-pyrido[1,2-a]pyrimidin-3-yl)methylene)-2-thioxothiazolidin-4-one] yielded an IC50 (E. coli MurD) of over 100 µM, an activity at 100 µM (E. coli MurD; [1]) of 71% and an activity at 100 µM (S. aureus MurE) of 10%. The IC50 (S. aureus MurE) was 14 µM.

COc1ccccc1/C=C1\SC(=S)N(Cc2ccc3c(c2)OCO3)C1=O [Example 13, (Z)-3-(benzo[d][1,3]dioxol-5-yl-methyl)-5-(2-methoxybenzylidene)-2-thioxothiazolidin-4-one] was tested, and the IC50 (E. coli MurD) was over 100 µM, the activity at 100 µM (E. coli MurD; [1]) was 75% and the activity at 100 µM (S. aureus MurE) was 90%. For the same compound, the IC50 (S. aureus MurE) was over 100 µM.

CNc1nc2ccccn2c(=O)c1/C=C1\SC(=S)N(Cc2ccc3c(c2)OCO3)C1=O [Example 2, (Z)-3-(benzo[d][1,3]dioxol-5-yl-methyl)-5-((2-(methylamino)-4-oxo-4H-pyrido[1,2-a]pyrimidin-3-yl)methylene)-2-thioxothiazolidin-4-one] showed an IC50 (E. coli MurD) of 111 µM, an activity at 100 µM (E. coli MurD) of 22% and an activity at 100 µM (S. aureus MurE) of 7%. The IC50 (S. aureus MurE) was 4 µM.

Compound CN(C)c1ccc(/C=C2\SC(=S)N(Cc3ccc4c(c3)OCO4)C2=O)cc1 [Example 11, (Z)-3-(benzo[d][1,3]dioxol-5-yl-methyl)-5-(4-(dimethylamino)benzylidene)-2-thioxothiazolidin-4-one] has an IC50 (E. coli MurD) of over 100 µM, an activity at 100 µM (E. coli MurD; [1]) of 95% and an activity at 100 µM (S. aureus MurE) of 25%. It also gave an IC50 (S. aureus MurE) of 4.5 µM.

O=C1/C(=C/c2ccccc2O)SC(=S)N1Cc1ccc2c(c1)OCO2 [Example 8, (Z)-3-(benzo[d][1,3]dioxol-5-yl-methyl)-5-(2-hydroxybenzylidene)-2-thioxothiazolidin-4-one] gave an IC50 (E. coli MurD) of over 100 µM, an activity at 100 µM (E. coli MurD; [1]) of 100% and an activity at 100 µM (S. aureus MurE) of 23%. For the same compound, the IC50 (S. aureus MurE) was 1.5 µM.

Work on O=C1/C(=C/c2cccc(O)c2)SC(=S)N1Cc1ccc2c(c1)OCO2 [Example 10, (Z)-3-(benzo[d][1,3]dioxol-5-yl-methyl)-5-(3-hydroxybenzylidene)-2-thioxothiazolidin-4-one] yielded an IC50 (E. coli MurD) of over 100 µM, an activity at 100 µM (E. coli MurD; [1]) of 97% and an activity at 100 µM (S. aureus MurE) of 31%. The IC50 (S. aureus MurE) was 13 µM.
